Assay results as given in paper PMC6582486, “Stapled EGFR peptide reduces inflammatory breast cancer and inhibits additional HER-driven models of cancer” (Journal of Translational Medicine, 2019).
Marks after values point to notes of the source that are not given here. Where a SMILES comes first, the peptide text is derived from it. Bridges are numbered along the chain shown (N, C = ends). [ ]: non-standard residue; d: D form. R8 = C=CCCCCCC[C@@](C)(N)C(=O)O; S5 = C=CCCC[C@](C)(N)C(=O)O

Assays:
[1] = 28-day toxicity study: clinical chemistry; format: in vivo, CD-1 mice; conditions: day 29, mean ± SD
Experimental: Toxicology was performed by IITRI. The study was conducted in compliance with the US Food and Drug Administration (FDA) good laboratory practice (GLP) Regulations (Code of Federal Regulations Title 21 Part 58) to evaluate the toxicokinetics, local tolerability, immunogenicity, and potential toxicity of SAH5-EJ1 following three times per week intravenous (IV) dosing for 28 days in mice. Male and female CD-1 IGS [Crl:CD1(ICR)] mice (135 per sex) were received from Wilmington, MA-based Charles River Laboratories, Inc.’s Kingston facility (Stone Ridge, NY).

[2] = system: grade 3 invasive ductal breast carcinoma PDX TM01278; assay: Breast cancer PDX mouse model TM01278; format: in vivo
Description: The following PDX mouse models were generated by Jackson Labs (Sacramento, CA): Breast TM01278; Grade 3 invasive ductal carcinoma, primary malignancy; EGFR inactivating R521K mutation; ERBB3 G1288A mutation in kinase domain with unknown effects on activity; increased EGFR/ERBB2/ERBB3. Lung TM00784; Grade 3 lung adenocarcinoma, primary malignancy; EGFR activating L858R mutation; increased EGFR, decreased ERBB2/ERBB3/ERBB4. All animals were maintained as outlined by University of Arizona Institutional Animal Care and Use Committee (IACUC) by the Experimental Mouse Shared Resource (EMSR).
(§1) Fig. 4 SAH5-EJ1 effectively treats models of basal and inflammatory breast cancers while increasing survival. a Changes in tumor burden in breast cancer PDX mouse model TM01278 with various concentrations of intravenous SAH5-EJ1. Control represents water as a vehicle control. *p < 0.05 (Control vs 1 µg/g); **p < 0.01 (Control vs 1 µg/g and vs 10 µg/g). N = 6 for each condition. b Kaplan–Meier curve of breast PDX mouse model treated with control (blue) or either 1 or 10 µg/g SAH5-EJ1 (green and red, respectively) (red asterisks indicate time point at which mice could no longer receive injections due to site toxicity). Data shown represent mean. N = 6 for all groups. c Cell viability assay performed in SUM149 cells over 3 days comparing treatment with Sapitinib (blue) to SAH5-EJ1 (red) and SAH5-CP (grey). […]

[3] = system: SUM149-generated tumors; assay: Inflammatory breast cancer SUM149 mouse model; format: in vivo, SCID mice
Experimental: 26 female SCID mice were injected with 0.1 mL of a cell solution containing 3.84 × 10^6 SUM149 cells resuspended in Trevigen and sterile saline at site L4. Mice were incubated for 35 days to allow tumor growth prior to injection of SAH5-EJ1, and randomized into 3 groups, N = 8 mice/group. Injections of 5 µg/g or 0.5 µg/g in 0.1 mL volumes of SAH5-EJ1 were administered via tail vein every 3 days for 31 days until the administration route changed to intraperitoneal injections through the conclusion of the study. Control injections of equal volumes of sterile water were also performed. All animals were maintained as outlined by University of Arizona Institutional Animal Care and Use Committee (IACUC) by the Experimental Mouse Shared Resource (EMSR).
as §1, with “(grey). Solid lines represent 24 h; dashed lines represent 72 h. Data shown represent mean ± percent difference of assays performed in triplicate. d Kaplan–Meier curve of inflammatory breast cancer SUM149-injected mouse model treated with injected control (water) (blue) or either 0.5 or 5 µg/g SAH5-EJ1 (green and red, respectively). Data shown represent mean. N = 8 for all groups. e Changes in tumor burden in SUM149-generated tumors with various doses of SAH5-EJ1. Control represents water (blue).” for “(grey).”

SMILES: CC[C@H](C)[C@H](NC(=O)[C@H](Cc1c[nH]cn1)NC(=O)[C@H](CCCNC(=N)N)NC(=O)[C@H](CCCNC(=N)N)NC(=O)[C@H](CCCNC(=N)N)NC(=O)[C@H](CCSC)NC(=O)[C@H](Cc1ccccc1)NC(=O)[C@H](C)NC(=O)[C@H](CCCNC(=N)N)NC(=O)[C@H](C)NC(=O)[C@H](CCC(N)=O)NC(=O)[C@H](CCCNC(=N)N)NC(=O)[C@H](C)NC(=O)[C@H](C)NC(=O)[C@H](C)NC(=O)[C@H](CCCNC(=N)N)NC(=O)[C@H](C)NC(=O)[C@@H](N)Cc1ccc(O)cc1)C(=O)N[C@H](C(=O)N[C@@H](CCCNC(=N)N)C(=O)N[C@@H](CCCCN)C(=O)N[C@@H](CCCNC(=N)N)C(=O)N[C@]1(C)CCCCCCC=CCCC[C@@](C)(C(=O)N[C@@H](CCCNC(=N)N)C(=O)N[C@@H](CCC(=O)O)C(N)=O)NC(=O)[C@H](CCC(N)=O)NC(=O)[C@H](CC(C)C)NC(=O)[C@H](CC(C)C)NC(=O)[C@H](CCCNC(=N)N)NC(=O)[C@H](CCCNC(=N)N)NC(=O)[C@H](CC(C)C)NC1=O)C(C)C [SAH5-EJ1] (H-YARAAARQARAFMRRRHIVRKR[R8]LRRLLQ[S5]RE-NH2; staple 23-30)
- ALP ([1]; female, 5 mg/kg, N = 5): 88 ± 33.2 IU/L
- ALT ([1]; female, 5 mg/kg, N = 5): 79 ± 35.0 IU/L
- AST ([1]; female, 5 mg/kg, N = 5): 80 ± 8.3^a IU/L
- BUN ([1]; female, 5 mg/kg, N = 5): 19 ± 2.2 mg/dL
- TBIL ([1]; female, 5 mg/kg, N = 5): 0.2 ± 0.05 mg/dL
- ALP ([1]; female, 10 mg/kg, N = 5): 70 ± 48.4 IU/L
- ALT ([1]; female, 10 mg/kg, N = 5): 61 ± 18.5 IU/L
- AST ([1]; female, 10 mg/kg, N = 5): 83 ± 19.0 IU/L
- BUN ([1]; female, 10 mg/kg, N = 5): 19 ± 3.0 mg/dL
- TBIL ([1]; female, 10 mg/kg, N = 5): 0.1 ± 0.05 mg/dL
- ALP ([1]; female, 15 mg/kg, N = 4): 62 ± 18.4 IU/L
- ALT ([1]; female, 15 mg/kg, N = 4): 90 ± 27.2 IU/L
- AST ([1]; female, 15 mg/kg, N = 4): 93 ± 12.5 IU/L
- BUN ([1]; female, 15 mg/kg, N = 4): 22 ± 2.5 mg/dL
- TBIL ([1]; female, 15 mg/kg, N = 4): 0.1 ± 0^b mg/dL
- ALP ([1]; male, 5 mg/kg, N = 4): 68 ± 13.8 IU/L
- ALT ([1]; male, 5 mg/kg, N = 4): 124 ± 71.5 IU/L
- AST ([1]; male, 5 mg/kg, N = 4): 92 ± 28.6 IU/L
- BUN ([1]; male, 5 mg/kg, N = 4): 26 ± 2.2 mg/dL
- TBIL ([1]; male, 5 mg/kg, N = 4): 0.2 ± 0.05 mg/dL
- ALP ([1]; male, 10 mg/kg, N = 5): 73 ± 19.7 IU/L
- ALT ([1]; male, 10 mg/kg, N = 5): 96 ± 28.3 IU/L
- AST ([1]; male, 10 mg/kg, N = 5): 83 ± 23.6 IU/L
- BUN ([1]; male, 10 mg/kg, N = 5): 31 ± 7.3 mg/dL
- TBIL ([1]; male, 10 mg/kg, N = 5): 0.2 ± 0.04 mg/dL
- ALP ([1]; male, 15 mg/kg, N = 4): 58 ± 10.5 IU/L
- ALT ([1]; male, 15 mg/kg, N = 4): 67 ± 32.3 IU/L
- AST ([1]; male, 15 mg/kg, N = 4): 63 ± 13.5 IU/L
- BUN ([1]; male, 15 mg/kg, N = 4): 23 ± 2.9 mg/dL
- TBIL ([1]; male, 15 mg/kg, N = 4): 0.2 ± 0.05 mg/dL
- increase in survival ([2]; 1 µg/g IV vs control, N = 6): 2.5 fold
- time on study at which all remaining mice were sacrificed due to toxicity at the injection site ([2]; 10 µg/g IV): 41 days
- time of treatment until all animals showed no residual tumor burden ([3]; 0.5 or 5 µg/g every 3 days, IV then IP): ≤ 55 days
- treated mice displaying tumor regrowth ([3]; 0.5 or 5 µg/g groups together): 9/16
- treated mice remaining at the end of the study ([3]; 0.5 or 5 µg/g, treatment up to 203 days): more than 40%
